We go through one molecule from article PMC12735921, “Evaluation of Antiproliferative Activity and Molecular Modeling Studies of Some Novel Benzimidazolone-Bridged Hybrid Compounds” (Pharmaceuticals, 2025).

The test system of one assay is HEK 293 cells. Put plainly: MTT cell viability assay, non-cancerous HEK 293. The following applies: Homo sapiens, HEK293, 48 h, mean ± SD, n = 3. It is filed as cell-based, human. Put shortly:
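Cells grown in DMEM/10% FBS were seeded at 1 × 10^5 cells/mL and exposed to compounds at 0.5–200 µM for 48 h. Formazan was dissolved in DMSO and read at 570 nm, with cytotoxicity expressed relative to untreated control (0%). IC50 came from a four-parameter logistic fit, averaged over three independent runs.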

The next assay concerns A549 cells. Briefly: Total oxidative status (TOS), A549. The assay is classed as cell-based, human. The following applies: A549, IC50 concentration of compound, 48 h; H2O2 250 µM positive control; mean ± SD, n = 3. The method, then:
TOS were evaluated using a commercially available kit (Rel Assay Diagnostics®, Gaziantep, Turkey) according to the manufacturer’s instructions. […] The TOS assay quantifies oxidizing agents based on their ability to convert an iron (II) ion chelator complex to iron (III) ions. The results were calibrated against hydrogen peroxide (H2O2, 250 µM) as a positive control for 48 h and expressed as µmol H2O2 equivalents per liter. The analysis was performed in three independent biological replicates (n = 3).

The test system of assay [1] is HeLa cells. Put plainly: Cell cycle analysis (PI staining, flow cytometry), HeLa. The settings on record: IC50 concentration, 48 h, mean ± SEM, n = 3. The assay is classed as cell-based, human. The method, then:
Cell cycle distribution was assessed by propidium iodide (PI) staining and flow cytometry. HeLa, MCF-7, and A549 cells were seeded in 6-well plates at a density of 1 × 10^5 cells per well and allowed to attach overnight. […] Following exposure, both adherent and floating cells were collected, washed twice with cold phosphate-buffered saline (PBS, pH 7.4), and fixed overnight in 70% cold ethanol at 4 °C. After fixation, the cells were centrifuged and resuspended in 500 µL of PI/RNase staining solution containing 50 µg/mL PI and 100 µg/mL RNase A (Sigma-Aldrich®, St. Louis, MO, USA), followed by incubation in the dark for 30 min at 37 °C. The stained samples were analyzed using a Muse™ Cell Analyzer (Merck, Millipore, Germany) equipped with a 488 nm excitation laser and a 617 nm emission filter. A minimum of 10,000 events per sample were acquired after exclusion of debris and doublets via FSC-A vs. FSC-H gating. The DNA content histograms were generated automatically, and cell populations were expressed as percentages of G0/G1, S, and G2/M phases using the Muse™ Cell Cycle Analysis Software 1.5.0.0. All assays were conducted in triplicate biological repeats (n = 3), and results were reported as mean ± SEM.

The test system of assay [2] is HeLa cells. Briefly: Total oxidative status (TOS), HeLa. The settings on record: IC50 concentration of compound, 48 h, H2O2 250 µM positive control, mean ± SD, n = 3. It is filed as cell-based, human.
Assay [3] relates to HeLa cells. Briefly: LDH leakage assay, HeLa. The assay is classed as cell-based, human. The settings on record: IC50 concentration of compound, 48 h, H2O2 positive control, mean ± SD, n = 3. The method, then:
One hundred microliters of culture medium was transferred to a new 96-well plate. One hundred microliters of LDH reaction solution was added to each well, and absorbance was measured at 490 nm using an ELISA plate reader (BMG Labtech, Ortenberg, Germany) after 30 min.

In assay [4] the test system is A549, MCF-7, and HeLa cells. Briefly: MTT cell viability assay, ranges stated across the cancer cell lines. The assay is classed as cell-based. The following applies: Homo sapiens, range over the three cancer cell lines, 48 h. The method, then:
Cell viability assay was performed on the human lung cancer (A549) (ATCC CCL-185), human breast cancer (MCF-7) (ATCC-HTB-22), cervical cancer (HeLa) (ATCC-CCL-2), and human embryonic kidney 293 (HEK293) (ATCC-CRL-1573) cell lines, which were purchased from Deutsche Sammlung von Mikroorganismen und Zellkulturen (DSMZ, Braunschweig, Germany). The cells were maintained in Dulbecco’s modified Eagle’s medium (DMEM), supplemented with 10% fetal bovine serum (FBS), 2 mM L-glutamine, 100 U/mL penicillin, and 100 mg/L streptomycin (Biochrom AG, Berlin, Germany) at 37 °C in a humidified atmosphere of 5% CO2.
The cytotoxic effect was determined by the MTT (3-(4,5-dimethyl-2-thiazolyl)-2,5-diphenyl-2H-tetrazolium bromide) cell viability assay. Cells were seeded at an initial concentration of 1 × 10^5 cells/mL in 96-well microplates. […] After the incubation period, the formed formazan crystals were dissolved in dimethyl sulfoxide (DMSO), and the optical density (OD) of the compounds was measured at 570 nm using a spectrophotometer (BMG Labtech, Ortenberg, Germany). Cytotoxicity was expressed as an increase in the mean percentage of cytotoxicity relative to the unexposed control ± standard deviation (SD). […] IC50 was calculated by fitting the data to a sigmoidal curve using a four-parameter logistic model and was presented as an average of three independent measurements. […]

Several values for one entry are separate records, joined by “and”; a condition that tells them apart may be missing. Equal values may be shown once. Marks after values point to notes of the source that are not given here.

In the assay on HEK 293 cells, `O=C(O)Cn1c(=O)n(CC(=O)O)c2cc(Cl)c(Cl)cc21` [Compound 6, 2,2′-(5,6-Dichloro-2-oxo-1H-benzo[d]imidazole-1,3(2H)-diyl)diacetic Acid] showed an IC50 of 62.7 ± 3.62 µM. For the same molecule, the TOS in the assay on A549 cells was 7.3 ± 0.5 ^a,b µmol H2O2 eq/L. Further, in the assay with HeLa cells [1], the “cells in G0/G1 phase” value is on record as 42.3 ± 2.3%, the “cells in G2/M phase” value is listed as 32.9 ± 1.6% and the “cells in S phase” value came to 24.8 ± 1.5%. The TOS with HeLa cells [2] is 7.8 ± 0.6 µmol H2O2 eq/L and 7.8 ± 0.6 ^a,b µmol H2O2 eq/L. Also, the LDH in the assay with HeLa cells [3] was 27.3 ± 2.5 µU/mL and 27.3 ± 2.5 ^a,b µU/mL. The molecule also returned a concentration for half-maximal inhibition (IC50) in assay [4] of 28.3 to 31.2 µM.
